This experiment relates to P388. Put plainly: Cytotoxicity against mouse P388 cells. In kind it is functional.

SMILES strings stand for the structures.

The compound `COc1ccc2c3c(c4cc(OC)c(OC)cc4c2c1)[C@@H](O)[C@@H]1CCCN1C3` [HYPOESTESTATIN 2] showed an ED50 of 4 ×10⁻⁵ ug/ml.

Source of the values: ChEMBL document CHEMBL1151630, “Antineoplastic agents, 103. The isolation and structure of hypoestestatins 1 and 2 from the East African Hypoëstes verticillaris” (1984).
